Counter-ions that a name gives are not always drawn.
molecular target: human dopamine transporter (Homo sapiens (Human), UniProt Q01959); experiment: hDAT binding assay ([3H]WIN35,428); conditions: membrane from CHO-K1 cells, 8 nM [3H]WIN35,428;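 further: displacement of the radioligand from the transporter membranes, incubated 120 min at 4 °C in Tris-HCl buffer with NaCl, pH 7.4, measured by filter-bound radioactivity counting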
Sequence (Q01959 whole entry): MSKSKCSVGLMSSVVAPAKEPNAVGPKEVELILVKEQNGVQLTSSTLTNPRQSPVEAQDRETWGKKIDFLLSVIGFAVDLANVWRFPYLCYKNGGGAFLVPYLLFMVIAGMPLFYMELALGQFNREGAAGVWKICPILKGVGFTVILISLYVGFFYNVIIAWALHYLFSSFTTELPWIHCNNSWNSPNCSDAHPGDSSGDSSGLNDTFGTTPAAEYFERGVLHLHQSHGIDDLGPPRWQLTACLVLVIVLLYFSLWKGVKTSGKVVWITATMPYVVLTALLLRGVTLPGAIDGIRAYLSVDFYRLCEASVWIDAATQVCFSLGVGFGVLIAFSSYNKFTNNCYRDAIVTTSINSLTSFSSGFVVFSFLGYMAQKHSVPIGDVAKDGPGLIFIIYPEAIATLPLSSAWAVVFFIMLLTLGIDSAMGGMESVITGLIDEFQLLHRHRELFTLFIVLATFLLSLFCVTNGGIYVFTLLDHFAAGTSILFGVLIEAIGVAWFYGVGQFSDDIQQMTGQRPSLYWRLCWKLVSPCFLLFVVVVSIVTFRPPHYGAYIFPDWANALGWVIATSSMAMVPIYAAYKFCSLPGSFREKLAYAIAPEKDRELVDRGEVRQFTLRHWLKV

| Structure (SMILES) | IC50 [nM] |
| --- | --- |
| CCOC(c1ccc(Cl)cc1)C1CNC1.Cl (stereo not shown) [KHG26754, 3-((4-chlorophenyl)(ethoxy)methyl)azetidine hydrochloride] | 1950 |
| Cl.O=C(OC(c1ccccc1)C1CNC1)c1ccccc1 (stereo not shown) [KHG26771, azetidine-3-yl(phenyl)methyl benzoate hydrochloride] | 1680 |

same assay, conditions: read-out: hDAT binding assay %-inhibition (10 uM)

| Structure (SMILES) | inhibition at 10 µM [%] |
| --- | --- |
| COC(c1ccc(Cl)cc1)C1CNC1.Cl (stereo not shown) [KHG26753, 3-((4-chlorophenyl)(methoxy)methyl)azetidine hydrochloride] | 58 |
| CCOC(c1ccc(Cl)cc1)C1CNC1.Cl (stereo not shown) [KHG26754, 3-((4-chlorophenyl)(ethoxy)methyl)azetidine hydrochloride] | 76 |
| Cl.O=C(OC(c1ccccc1)C1CNC1)c1ccccc1 (stereo not shown) [KHG26771, azetidine-3-yl(phenyl)methyl benzoate hydrochloride] | 77 |

molecular target: human serotonin transporter (Homo sapiens (Human), UniProt P31645); experiment: hSERT binding assay ([3H]Imipramine); conditions: not given;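 further: displacement of radiolabeled imipramine from the transporter, incubated 30 min at 27 °C in Tris-HCl pH 7.4 with NaCl and KCl, bound radioactivity counted after filtration, nonspecific binding defined with 200 uM imipramine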
Sequence (P31645 whole entry): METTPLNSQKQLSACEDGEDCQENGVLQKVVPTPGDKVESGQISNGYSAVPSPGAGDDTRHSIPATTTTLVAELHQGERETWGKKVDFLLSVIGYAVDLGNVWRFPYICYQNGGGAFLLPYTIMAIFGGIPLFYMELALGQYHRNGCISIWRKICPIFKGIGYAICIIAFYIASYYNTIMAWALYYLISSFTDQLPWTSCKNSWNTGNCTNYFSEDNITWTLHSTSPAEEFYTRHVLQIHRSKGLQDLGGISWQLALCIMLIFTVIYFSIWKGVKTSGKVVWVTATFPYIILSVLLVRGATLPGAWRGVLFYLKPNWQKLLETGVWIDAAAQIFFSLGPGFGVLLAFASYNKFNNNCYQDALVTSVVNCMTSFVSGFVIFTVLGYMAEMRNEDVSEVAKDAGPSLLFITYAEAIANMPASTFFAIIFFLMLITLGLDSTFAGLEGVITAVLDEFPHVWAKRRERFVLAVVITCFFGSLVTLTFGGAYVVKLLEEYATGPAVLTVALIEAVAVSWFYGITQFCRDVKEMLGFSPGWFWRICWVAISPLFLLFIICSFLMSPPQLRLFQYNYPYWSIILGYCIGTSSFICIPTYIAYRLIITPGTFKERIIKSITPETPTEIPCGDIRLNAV

| Structure (SMILES) | IC50 [nM] |
| --- | --- |
| Cl.O=C(OC(c1ccccc1)C1CNC1)c1ccccc1 (stereo not shown) [KHG26771, azetidine-3-yl(phenyl)methyl benzoate hydrochloride] | 402 |

same assay, conditions: 10 uM; membrane from HEK293 cells; read-out: hSERT binding assay %-inhibition (10 uM)

| Structure (SMILES) | inhibition at 10 µM [%] |
| --- | --- |
| COC(c1ccc(Cl)cc1)C1CNC1.Cl (stereo not shown) [KHG26753, 3-((4-chlorophenyl)(methoxy)methyl)azetidine hydrochloride] | 95 |
| CCOC(c1ccc(Cl)cc1)C1CNC1.Cl (stereo not shown) [KHG26754, 3-((4-chlorophenyl)(ethoxy)methyl)azetidine hydrochloride] | 95 |

same assay, conditions: membrane from HEK293 cells, 2 nM [3H]Imipramine

| Structure (SMILES) | IC50 [nM] |
| --- | --- |
| COC(c1ccc(Cl)cc1)C1CNC1.Cl (stereo not shown) [KHG26753, 3-((4-chlorophenyl)(methoxy)methyl)azetidine hydrochloride] | 42.9 |
| CCOC(c1ccc(Cl)cc1)C1CNC1.Cl (stereo not shown) [KHG26754, 3-((4-chlorophenyl)(ethoxy)methyl)azetidine hydrochloride] | 120 |

same assay, conditions: read-out: hSERT binding assay %-inhibition (10 uM)

| Structure (SMILES) | inhibition at 10 µM [%] |
| --- | --- |
| Cl.O=C(OC(c1ccccc1)C1CNC1)c1ccccc1 (stereo not shown) [KHG26771, azetidine-3-yl(phenyl)methyl benzoate hydrochloride] | 92 |

test system: not given; experiment: not given; conditions: not given

| Structure (SMILES) | melting point [°C] |
| --- | --- |
| CCCOC(c1ccc2ccccc2c1)C1CNC1.Cl (stereo not shown) | 223 |
| CCCOC(c1ccc(Cl)c(Cl)c1)C1CNC1.Cl (stereo not shown) | 151 |
| Cl.Fc1ccc(C(Oc2ccccc2OC(F)(F)F)C2CNC2)cc1Cl (stereo not shown) | 157 |
| Cl.Fc1ccc(C(Oc2ccccc2F)C2CNC2)cc1Cl (stereo not shown) | 194 |
| Cl.c1ccc(C(Oc2ccc3ccccc3c2)C2CNC2)cc1 (stereo not shown) | 183 |
| Cl.Fc1ccc(C(Oc2cccc(Cl)c2)C2CNC2)cc1Cl (stereo not shown) | 205 |
| Cl.Fc1ccc(C(Oc2ccc(Cl)c(Cl)c2)C2CNC2)cc1Cl (stereo not shown) | 186 |
| Cl.Fc1ccc(OC(c2ccc3ccccc3c2)C2CNC2)cc1 (stereo not shown) | 214 |
| Cl.Fc1cc(C(Oc2ccccc2Cl)C2CNC2)ccc1Cl (stereo not shown) | 220 |
| Cl.Fc1ccc(C(Oc2ccccc2)C2CNC2)cc1Cl (stereo not shown) | 208 |
| Cl.Fc1ccc(C(Oc2ccccc2F)C2CNC2)cc1F (stereo not shown) | 187 |
| Cl.Fc1ccc(OC(c2ccc(F)c(F)c2)C2CNC2)cc1 (stereo not shown) | 188 |
| Cl.Fc1cc(C(Oc2ccc(OC(F)(F)F)cc2)C2CNC2)ccc1Cl (stereo not shown) | 151 |
| COC(c1ccc(Cl)cc1)C1CNC1.Cl (stereo not shown) [KHG26753, 3-((4-chlorophenyl)(methoxy)methyl)azetidine hydrochloride] | 281 |
| Cc1cccc(OC(c2ccc(Cl)c(F)c2)C2CNC2)c1.Cl (stereo not shown) | 203 |
| Cl.Clc1ccc(OC(c2ccc3ccccc3c2)C2CNC2)cc1Cl (stereo not shown) | 217 |
| Cl.Fc1ccc(C(Oc2ccccc2Cl)C2CNC2)cc1Cl (stereo not shown) | 188 |
| Cl.Fc1cc(C(Oc2ccccc2F)C2CNC2)ccc1Cl (stereo not shown) | 198 |
| Cl.FC(F)(F)Oc1cccc(OC(c2ccc3ccccc3c2)C2CNC2)c1 (stereo not shown) | 217 |
| Cl.Clc1ccc(OC(c2ccc3ccccc3c2)C2CNC2)cc1 (stereo not shown) | 211 |
| Cl.c1ccc(OC(c2ccc3ccccc3c2)C2CNC2)cc1 (stereo not shown) | 218 |
| Cl.Fc1ccc(OC(c2ccc(Cl)c(F)c2)C2CNC2)cc1 (stereo not shown) | 218 |
| CCCOC(c1ccc(F)c(F)c1)C1CNC1.Cl (stereo not shown) | 116 |
| Cl.Fc1ccccc1OC(c1ccc2ccccc2c1)C1CNC1 (stereo not shown) | 211 |
| Cl.Fc1cccc(OC(c2ccc(Cl)c(F)c2)C2CNC2)c1 (stereo not shown) | 217 |
| Cc1cccc(OC(c2ccc(F)c(Cl)c2)C2CNC2)c1.Cl (stereo not shown) | 151 |

| Structure (SMILES) | melting point [°C] |
| --- | --- |
| Cl.Fc1ccc(OC(c2ccc(Cl)c(F)c2)C2CNC2)cc1F (stereo not shown) | 216 |
| Cl.Fc1cccc(OC(c2ccc3ccccc3c2)C2CNC2)c1 (stereo not shown) | 216 |
| Cl.Fc1ccc(OC(c2ccc3ccccc3c2)C2CNC2)cc1F (stereo not shown) | 212 |
| Cl.Clc1ccc(C(Oc2ccccc2Cl)C2CNC2)cc1Cl (stereo not shown) | 197 |
| Cc1ccccc1OC(c1ccc(F)c(Cl)c1)C1CNC1.Cl (stereo not shown) | 209 |
| CCOC(c1ccc2ccccc2c1)C1CNC1.Cl (stereo not shown) | 205 |
| Cl.Fc1ccc(C(Oc2cccc(OC(F)(F)F)c2)C2CNC2)cc1Cl (stereo not shown) | 157 |
| Cl.Fc1cc(C(Oc2ccc(Cl)cc2)C2CNC2)ccc1Cl (stereo not shown) | 203 |
| Cc1ccc(OC(c2ccc(Cl)c(F)c2)C2CNC2)cc1.Cl (stereo not shown) | 173 |
| Cl.Clc1cccc(OC(c2ccc3ccccc3c2)C2CNC2)c1 (stereo not shown) | 214 |
| Cl.Fc1ccc(C(Oc2ccccc2Cl)C2CNC2)cc1F (stereo not shown) | 174 |
| Cl.Clc1ccc(OC(c2ccc(Cl)c(Cl)c2)C2CNC2)cc1Cl (stereo not shown) | 208 |
| Cl.FC(F)(F)Oc1ccccc1OC(c1ccc(Cl)c(Cl)c1)C1CNC1 (stereo not shown) | 225 |
| Cl.FC(F)(F)Oc1ccc(OC(c2ccc3ccccc3c2)C2CNC2)cc1 (stereo not shown) | 209 |
| Cl.Fc1cccc(OC(c2ccc(F)c(Cl)c2)C2CNC2)c1 (stereo not shown) | 209 |
| Cl.Fc1cccc(OC(c2ccc(Cl)c(Cl)c2)C2CNC2)c1 (stereo not shown) | 218 |
| Cl.Clc1cccc(OC(c2ccc(Cl)c(Cl)c2)C2CNC2)c1 (stereo not shown) | 169 |
| Cl.Fc1ccc(OC(c2ccc(Cl)c(Cl)c2)C2CNC2)cc1F (stereo not shown) | 240 |
| Cl.Fc1cc(C(Oc2ccccc2)C2CNC2)ccc1Cl (stereo not shown) | 201 |
| CCOC(c1ccc(Cl)cc1)C1CNC1.Cl (stereo not shown) [KHG26754, 3-((4-chlorophenyl)(ethoxy)methyl)azetidine hydrochloride] | 190 |
| Cl.Fc1cc(C(OCc2ccccc2)C2CNC2)ccc1Cl (stereo not shown) | 191 |
| Cl.Fc1cc(C(Oc2cccc(Cl)c2)C2CNC2)ccc1Cl (stereo not shown) | 204 |
| Cl.O=C(OC(c1ccccc1)C1CNC1)c1ccccc1 (stereo not shown) [KHG26771, azetidine-3-yl(phenyl)methyl benzoate hydrochloride] | 215 |
| Cl.Clc1ccc(OC(c2ccc(Cl)c(Cl)c2)C2CNC2)cc1 (stereo not shown) | 201 |
| Cl.Fc1cc(C(Oc2ccccc2OC(F)(F)F)C2CNC2)ccc1Cl (stereo not shown) | 166 |
| CCOC(c1ccc(Cl)c(F)c1)C1CNC1.Cl (stereo not shown) | 215 |

| Structure (SMILES) | melting point [°C] |
| --- | --- |
| Cc1ccccc1OC(c1ccc2ccccc2c1)C1CNC1.Cl (stereo not shown) | 213 |
| Clc1ccc(C(Oc2ccccc2)C2CNC2)cc1Cl (stereo not shown) (as salt: hydrochloride) [KHG26767, 3-((3,4-dichlorophenyl)(phenoxy)methyl)azetidine hydrochloride] | 175 |
| Cc1ccccc1OC(c1ccc(Cl)c(F)c1)C1CNC1.Cl (stereo not shown) | 205 |
| Cc1ccc(OC(c2ccc(F)c(Cl)c2)C2CNC2)cc1.Cl (stereo not shown) | 183 |
| Cl.Fc1ccc(C(Oc2ccc(Cl)cc2)C2CNC2)cc1Cl (stereo not shown) | 218 |
| Cl.Fc1ccc(OC(c2ccc(F)c(Cl)c2)C2CNC2)cc1 (stereo not shown) | 211 |
| Cc1ccc(OC(c2ccc3ccccc3c2)C2CNC2)cc1.Cl (stereo not shown) | 203 |
| Cl.Fc1ccc(C(Oc2cccc(Cl)c2)C2CNC2)cc1F (stereo not shown) | 152 |
| Cc1ccc(OC(c2ccc(F)c(F)c2)C2CNC2)cc1.Cl (stereo not shown) | 159 |
| CCOC(c1ccccc1)C1CNC1.Cl (stereo not shown) | 205 |
| Cl.Fc1ccc(OC(c2ccc(Cl)c(Cl)c2)C2CNC2)cc1 (stereo not shown) | 210 |
| Cl.Fc1cc(C(Oc2cccc(OC(F)(F)F)c2)C2CNC2)ccc1Cl (stereo not shown) | 145 |
| Cc1cccc(OC(c2ccc(F)c(F)c2)C2CNC2)c1.Cl (stereo not shown) | 189 |
| Cl.OC(c1ccccc1)C1CNC1 (stereo not shown) | 223 |
| Cc1ccccc1OC(c1ccc(F)c(F)c1)C1CNC1.Cl (stereo not shown) | 151 |
| COC(c1ccccc1)C1CNC1.Cl (stereo not shown) | 228 |
| Cc1cccc(OC(c2ccc3ccccc3c2)C2CNC2)c1.Cl (stereo not shown) | 210 |
| Cl.Fc1ccc(OC(c2ccc(F)c(Cl)c2)C2CNC2)cc1F (stereo not shown) | 187 |
| Cl.FC(F)(F)Oc1cccc(OC(c2ccc(Cl)c(Cl)c2)C2CNC2)c1 (stereo not shown) | 208 |
| Cl.FC(F)(F)Oc1ccc(OC(c2ccc(Cl)c(Cl)c2)C2CNC2)cc1 (stereo not shown) | 217 |
| Cl.Fc1ccccc1OC(c1ccc(Cl)c(Cl)c1)C1CNC1 (stereo not shown) | 224 |
| Cl.FC(F)(F)Oc1ccccc1OC(c1ccc2ccccc2c1)C1CNC1 (stereo not shown) | 228 |
| Cl.Fc1cc(C(Oc2ccc(Cl)c(Cl)c2)C2CNC2)ccc1Cl (stereo not shown) | 192 |
| Cl.Clc1ccccc1OC(c1ccc2ccccc2c1)C1CNC1 (stereo not shown) | 207 |

molecular target: human norepinephrine transporter (Homo sapiens (Human), UniProt P23975); experiment: hNET binding assay ([3H]Nisoxetine); conditions: 10 uM; membrane from MDCK cells; read-out: hNET binding assay %-inhibition (10 uM)
Sequence (P23975 whole entry): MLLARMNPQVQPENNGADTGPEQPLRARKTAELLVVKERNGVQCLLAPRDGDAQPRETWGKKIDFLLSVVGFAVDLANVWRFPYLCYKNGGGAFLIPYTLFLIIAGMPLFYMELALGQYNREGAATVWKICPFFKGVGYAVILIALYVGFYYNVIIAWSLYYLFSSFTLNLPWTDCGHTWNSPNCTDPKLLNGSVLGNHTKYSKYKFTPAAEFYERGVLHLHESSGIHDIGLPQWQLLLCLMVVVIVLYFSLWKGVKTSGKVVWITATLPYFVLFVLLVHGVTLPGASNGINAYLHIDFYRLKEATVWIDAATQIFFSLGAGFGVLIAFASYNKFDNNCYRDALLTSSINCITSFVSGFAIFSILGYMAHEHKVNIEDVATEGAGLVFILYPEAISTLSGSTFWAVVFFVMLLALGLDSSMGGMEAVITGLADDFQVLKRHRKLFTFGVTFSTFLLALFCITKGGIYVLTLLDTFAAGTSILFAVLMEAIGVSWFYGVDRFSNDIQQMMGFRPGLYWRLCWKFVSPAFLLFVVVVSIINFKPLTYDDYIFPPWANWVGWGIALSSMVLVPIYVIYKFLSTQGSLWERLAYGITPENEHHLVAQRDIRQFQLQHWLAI
Protocol: NE transporter binding assay for evaluating binding of the compound to the norepinephrine transporter was carried out using human recombinant norepinephrine transporter membrane (PerkinElmer Life and Analytical Sciences, USA) expressed in MDCK cells and radioisotope [^3H]Nisoxetine (PerkinElmer).
That is, the test drug, 6 nM [^3H]Nisoxetine, norepinephrine transporter membrane (11 ug/well), 120 mM NaCl and 50 mM Tris-HCl buffer (pH 7.4) containing 5 mM KCl were added to obtain a reaction mixture with a final volume of 0.25 ml. After incubation for 60 minutes at 4° C., the mixture was quickly passed through a Filtermat A glass fiber filter pre-soaked with 0.5% (w/v) PEI (polyethyleneimine) using Inotech Harvester (Inotech) to terminate the reaction. After washing with cold washing buffer (50 mM Tris-HCl, pH 7.4, 0.9% NaCl) solution, the filter was covered with MeltiLex and sealed in a sample bag. After drying in an oven, radioactivity was counted using MicroBeta Plus (Wallac).
Non-specific binding was measured in the presence of 1 uM desipramine. The IC50 value of the test drug was calculated from non-linear regression analysis (GraphPad Prism Program, San Diego, USA) of each %-inhibition value obtained from the drug with concentrations of 7th and 8th steps.

| Structure (SMILES) | inhibition at 10 µM [%] |
| --- | --- |
| COC(c1ccc(Cl)cc1)C1CNC1.Cl (stereo not shown) [KHG26753, 3-((4-chlorophenyl)(methoxy)methyl)azetidine hydrochloride] | 52 |
| CCOC(c1ccc(Cl)cc1)C1CNC1.Cl (stereo not shown) [KHG26754, 3-((4-chlorophenyl)(ethoxy)methyl)azetidine hydrochloride] | 91 |
| Cl.O=C(OC(c1ccccc1)C1CNC1)c1ccccc1 (stereo not shown) [KHG26771, azetidine-3-yl(phenyl)methyl benzoate hydrochloride] | 54 |

same assay, conditions: membrane from MDCK cells, 6 nM [3H]Nisoxetine

| Structure (SMILES) | IC50 [nM] |
| --- | --- |
| CCOC(c1ccc(Cl)cc1)C1CNC1.Cl (stereo not shown) [KHG26754, 3-((4-chlorophenyl)(ethoxy)methyl)azetidine hydrochloride] | 666 |
